According to ChEMBL document CHEMBL1143211, “Inhibitors of proteases and amide hydrolases that employ an alpha-ketoheterocycle as a key enabling functionality” (Bioorg Med Chem, 2008):

Assays:
[1] = biological target: T1, Fatty-acid amide hydrolase 1 (Rattus norvegicus, UniProt P97612)
T1 sequence (P97612 whole entry): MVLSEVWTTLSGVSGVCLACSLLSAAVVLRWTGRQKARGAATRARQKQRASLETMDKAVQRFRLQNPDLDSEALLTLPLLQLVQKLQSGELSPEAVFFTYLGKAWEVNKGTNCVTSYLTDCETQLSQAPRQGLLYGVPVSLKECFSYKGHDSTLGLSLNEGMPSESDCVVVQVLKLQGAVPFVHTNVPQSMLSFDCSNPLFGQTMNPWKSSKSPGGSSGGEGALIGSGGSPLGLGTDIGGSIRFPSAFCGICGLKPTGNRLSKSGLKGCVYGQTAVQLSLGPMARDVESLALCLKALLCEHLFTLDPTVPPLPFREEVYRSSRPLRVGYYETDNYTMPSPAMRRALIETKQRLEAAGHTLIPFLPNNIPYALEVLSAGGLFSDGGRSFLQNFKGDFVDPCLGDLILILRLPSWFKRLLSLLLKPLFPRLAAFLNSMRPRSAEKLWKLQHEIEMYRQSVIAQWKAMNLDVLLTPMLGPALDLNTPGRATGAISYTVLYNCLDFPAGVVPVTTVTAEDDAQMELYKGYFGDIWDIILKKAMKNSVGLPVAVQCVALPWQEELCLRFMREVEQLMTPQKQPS

[2] = biological target: Prolyl endopeptidase (Sus scrofa, UniProt P23687)
Prolyl endopeptidase, sequence (P23687 whole entry): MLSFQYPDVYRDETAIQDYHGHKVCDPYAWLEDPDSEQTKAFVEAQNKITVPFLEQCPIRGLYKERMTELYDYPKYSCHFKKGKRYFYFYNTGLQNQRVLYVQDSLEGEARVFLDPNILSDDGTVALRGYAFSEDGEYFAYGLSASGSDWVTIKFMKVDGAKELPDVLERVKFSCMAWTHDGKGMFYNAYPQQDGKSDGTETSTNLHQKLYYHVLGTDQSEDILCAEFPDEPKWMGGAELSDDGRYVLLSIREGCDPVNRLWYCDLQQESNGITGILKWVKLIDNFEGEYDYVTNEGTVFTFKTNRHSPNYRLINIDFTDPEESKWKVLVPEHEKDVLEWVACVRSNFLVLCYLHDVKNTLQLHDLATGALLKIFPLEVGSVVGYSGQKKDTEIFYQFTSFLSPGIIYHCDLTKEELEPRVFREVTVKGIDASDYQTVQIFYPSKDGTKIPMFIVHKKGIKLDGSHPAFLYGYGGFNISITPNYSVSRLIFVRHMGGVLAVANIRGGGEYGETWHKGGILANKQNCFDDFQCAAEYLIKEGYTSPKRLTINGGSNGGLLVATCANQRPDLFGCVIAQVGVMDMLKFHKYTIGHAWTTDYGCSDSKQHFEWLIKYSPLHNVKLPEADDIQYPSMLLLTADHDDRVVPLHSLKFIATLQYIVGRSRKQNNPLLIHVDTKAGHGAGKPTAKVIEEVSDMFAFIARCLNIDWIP

[3] = Inhibition of HDAC
[4] = biological target: Trypsin (Homo sapiens, UniProt P07477+P07478+P35030); assay: Inhibition of human trypsin; assay type: protein assay
[5] = biological target: Prothrombin (Homo sapiens, UniProt P00734); assay: Inhibition of human alpha-thrombin
[6] = Inhibition of human beta-tryptase
[7] = biological target: Coagulation factor X (Homo sapiens, UniProt P00742); assay: Inhibition of human factor 10a
Coagulation factor X, sequence (P00742 41-179 limits assumed): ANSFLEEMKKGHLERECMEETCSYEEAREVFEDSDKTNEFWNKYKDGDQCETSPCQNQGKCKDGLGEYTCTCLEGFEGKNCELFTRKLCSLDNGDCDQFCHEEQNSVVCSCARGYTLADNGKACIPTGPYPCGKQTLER
Coagulation factor X, sequence (P00742 235-488 limits assumed): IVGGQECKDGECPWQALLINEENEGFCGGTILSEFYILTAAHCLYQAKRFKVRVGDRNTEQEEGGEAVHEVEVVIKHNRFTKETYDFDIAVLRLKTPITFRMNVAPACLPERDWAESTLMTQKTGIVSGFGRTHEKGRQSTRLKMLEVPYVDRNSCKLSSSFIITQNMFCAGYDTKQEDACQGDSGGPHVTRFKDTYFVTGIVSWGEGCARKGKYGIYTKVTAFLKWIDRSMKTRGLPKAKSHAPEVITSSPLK

## CCCCCCCC/C=C\CCCCCCCC(=O)c1cccnn1
[1]
  Ki: 0.13 µM

## O=C(c1cncs1)[C@@H]1CCCN1C(=O)[C@@H]1CCCN1CCCc1ccccc1
[2]
  IC50: 1.1 µM

## O=C(CCCCCCNc1ccc2ccccc2c1)c1ncco1
[3]
  IC50: 0.43 µM

## Cn1nnnc1C(=O)[C@@H](NC(=O)[C@@H]1CC[C@H]2CN(S(=O)(=O)Cc3ccccc3)CC(=O)N21)[C@H]1CC[C@H](N)CC1
[4]
  Ki: 35 µM
[5]
  Ki: 0.005 µM

## CC(=O)N1CCC[C@H]1C(=O)N[C@@H](CCCN=C(N)N)C(=O)c1nc2ccccc2s1
[6]
  Ki: 0.019 µM
[5]
  IC50: 14 µM

## NC(N)=NCCC[C@H](NC(=O)CN1CCN(C(=O)Cc2ccccc2)CC1=O)C(=O)c1nccs1
[5]
  IC50: 11 µM
[7]
  IC50: 0.017 µM

## CC(=O)NCC(=O)N[C@@H](CCCN=C(N)N)C(=O)c1nc2ccccc2s1
[6]
  Ki: 0.47 µM

## Cc1nc(C(=O)[C@@H](NC(=O)[C@@H]2CC[C@H]3CN(S(=O)(=O)Cc4ccccc4)CC(=O)N32)[C@H]2CC[C@H](N)CC2)sc1C(=O)O
[4]
  Ki: 65 µM
[5]
  Ki: 0.08 µM

## C[C@H]1C(=O)N(CCCc2ccccc2)CC(=O)N1CC(=O)N[C@@H](C[C@@H]1CCCN(C(=N)N)C1)C(=O)c1nccs1
[4]
  IC50: 24 µM

## Cn1ccnc1C(=O)CCCCCCOc1ccc(-c2ccccc2)cc1
[3]
  IC50: > 50 µM

## CN[C@H](Cc1ccccc1)C(=O)N1CCC[C@H]1C(=O)N[C@](C)(CCCNC(=N)N)C(=O)c1nc2ccccc2s1.O=C(O)C(F)(F)F
[4]
  IC50: 6 µM
[5]
  IC50: 3.7 µM

## CC(=O)N1C[C@H](O)C[C@@H]1C(=O)N[C@@H](CCCNC(=N)N)C(=O)c1nc2ccccc2s1
[6]
  Ki: 0.38 µM

## O=C(CCCCCCOc1ccc(-c2ccccc2)cc1)c1ccccn1
[3]
  IC50: > 50 µM

## N=C(N)N1CCC[C@@H](C[C@H](NC(=O)CN2C(=O)CN(CCCc3ccccc3)C(=O)[C@H]2Cc2ccccc2)C(=O)c2nccs2)C1
[4]
  IC50: 9.1 µM

## CCCCCCCC/C=C\CCCCCCCC(=O)c1ncco1
[1]
  Ki: 0.017 µM

## N=C(N)N1CCC[C@@H](C[C@H](NC(=O)CN2CC(=O)N(CCCc3ccccc3)CC2=O)C(=O)c2nccs2)C1
[4]
  IC50: 91 µM
[5]
  Ki: 0.5 µM

## CC(NC(=O)[C@H](CC(=O)N(C)C)NC(=O)[C@@H](NC(=O)CC(C)(C)C)C(C)(C)C)C(=O)c1nc2ccccc2o1 (stereo not given in full)
[2]
  IC50: 0.08 µM

## CCCCCCCC/C=C\CCCCCCCC(=O)c1nccs1
[1]
  Ki: > 100 µM

## CC(NC(=O)[C@H](CC(=O)N(C)C)NC(=O)[C@@H](NC(=O)CC(C)(C)C)C(C)(C)C)C(=O)c1nc2ccccc2s1 (stereo not given in full)
[2]
  IC50: 9 µM

## O=C(CCCCCCOc1ccc(-c2ccccc2)cc1)C1=NCCO1
[3]
  IC50: 1 µM

## O=C(CCc1ccc(-c2ccccc2)cc1)c1nc(-c2ccccn2)co1
[1]
  Ki: 0.00075 µM

## N[C@H]1CC[C@H]([C@H](NC(=O)[C@@H]2CC[C@H]3CN(S(=O)(=O)Cc4ccccc4)CC(=O)N32)C(=O)c2nccs2)CC1
[4]
  Ki: 8 µM
[5]
  Ki: 0.0032 µM

## CCCCC/C=C\C/C=C\C/C=C\C/C=C\CCCC(=O)[n+]1ccccn1
[1]
  Ki: 0.047 µM

## CCCCC(=O)c1nc2ncccc2o1
[1]
  Ki: 0.05 µM

## CC(=O)N[C@@H](CC(C)C)C(=O)N[C@@H](CCCN=C(N)N)C(=O)c1nc2ccccc2s1
[6]
  Ki: 0.041 µM

## COC(=O)c1cccnc1-c1cnc(C(=O)CCCCCCc2ccccc2)o1
[1]
  Ki: 0.13 µM

## CCCCCCCC/C=C\CCCCCCCC(=O)c1nc2ccncc2o1
[1]
  Ki: 0.0037 µM

## NCCCCC(NC(=O)[C@H](Cc1ccccc1)NC(=O)[C@@H](Cc1ccccc1)NS(=O)(=O)Cc1ccccc1)C(=O)c1nc2ccccc2s1 (stereo not given in full)
[6]
  Ki: 0.023 µM

## O=C(CCCCCCC(=O)c1ncco1)Nc1cccc(-c2ccccc2)c1
[3]
  IC50: 0.06 µM

## NC(N)=NCCC[C@H](NC(=O)CN1CCN(S(=O)(=O)c2ccccc2)CC1=O)C(=O)c1nccs1
[5]
  IC50: 0.42 µM
[7]
  IC50: 0.008 µM

## O=C(CCCCCCOc1ccc(-c2ccccc2)cc1)c1nc2ccccc2o1
[3]
  IC50: > 50 µM

## O=C(CCCCCC(=O)c1ncco1)Nc1cccc(-c2ccccc2)c1
[3]
  IC50: 0.31 µM

## N=C(N)NCCC[C@H](NC(=O)CN1CCN(Cc2ccccc2)CC1=O)C(=O)c1nccs1
[5]
  IC50: 14 µM
[7]
  IC50: 0.77 µM

## COc1ccc(-c2csc(NC(=O)CCCCCCC(=O)c3ncco3)n2)cc1
[3]
  IC50: 0.03 µM

## CCCCCCCC/C=C\CCCCCCCC(=O)c1nnnn1C
[1]
  Ki: 3.7 µM

## N=C(N)NCCC[C@H](NC(=O)CN1CCN(S(=O)(=O)Cc2ccccc2)[C@H](Cc2ccccc2)C1=O)C(=O)c1nccs1
[5]
  IC50: 0.51 µM
[7]
  IC50: 0.0009 µM

## O=C(CCCCCCOc1ccc(-c2ccccc2)cc1)c1ncc[nH]1
[3]
  IC50: > 50 µM

## NC(N)=NCCC[C@H](NC(=O)CN1CCN[C@H](CCCN=C(N)N)C1=O)C(=O)c1nccs1
[5]
  IC50: 200 µM
[7]
  IC50: 0.021 µM

## CCCCCCCC/C=C\CCCCCCCC(=O)c1nnn(C)n1
[1]
  Ki: 0.065 µM

## N=C(N)N1CCC([C@H](NC(=O)[C@@H]2CC[C@H]3CN(C(=O)CCc4ccccc4)CC(=O)N32)C(=O)c2nccs2)CC1
[4]
  IC50: 11.9 µM

## C[C@@H]1C(=O)N(CCCc2ccccc2)CC(=O)N1CC(=O)N[C@@H](C[C@@H]1CCCN(C(=N)N)C1)C(=O)c1nccs1
[4]
  IC50: 0.34 µM

## N=C(N)NCCC[C@H](NC(=O)CN1CCN(S(=O)(=O)Cc2ccccc2)[C@@H](Cc2ccccc2)C1=O)C(=O)c1nccs1
[5]
  IC50: 2 µM
[7]
  IC50: 0.059 µM

## O=C(CCCCCCOc1ccc(-c2ccccc2)cc1)c1ncco1
[3]
  IC50: 1 µM

## N[C@H]1CC[C@H]([C@H](NC(=O)[C@@H]2CC[C@H]3CN(S(=O)(=O)Cc4ccccc4)CC(=O)N32)C(=O)c2nc3ccccc3s2)CC1
[4]
  Ki: 1.4 µM
[5]
  Ki: 0.0007 µM

## CCCCCCCCCC/C=C\CCCCCCC(=O)c1ncc(-c2cccnn2)o1
[1]
  Ki: 0.014 µM

## COC(=O)n1nnnc1C(=O)[C@@H](NC(=O)[C@@H]1CC[C@H]2CN(S(=O)(=O)Cc3ccccc3)CC(=O)N21)[C@H]1CC[C@H](N)CC1
[4]
  Ki: > 400 µM
[5]
  Ki: 2.6 µM

## CNC(=O)C(=O)CCCCCCOc1ccc(-c2ccccc2)cc1
[3]
  IC50: 0.11 µM

## O=C(CCCCCCOc1ccc(-c2ccccc2)cc1)c1nccs1
[3]
  IC50: > 50 µM

## CCCCC/C=C\C/C=C\C/C=C\C/C=C\CCCC(=O)c1nc2ncccc2o1
[1]
  Ki: 0.001 µM

## CC(=O)N1CCC[C@@H]1C(=O)N[C@@H](CCCN=C(N)N)C(=O)c1nc2ccccc2s1
[6]
  Ki: 14 µM

## O=C(CCCCCCOc1cccc(-c2ccccc2)c1)c1ncco1
[3]
  IC50: 0.62 µM

## O=C(CCCCCCOc1ccc(-c2ccccc2)cc1)c1nnn[nH]1
[3]
  IC50: 1 µM

## CC(=O)N1C[C@H](O)C[C@H]1C(=O)N[C@@H](CCCNC(=N)N)C(=O)c1nccs1
[6]
  Ki: 0.18 µM

## N=C(N)NCCC[C@H](NC(=O)CNC(=O)[C@@H](CC1CCCCC1)NS(=O)(=O)Cc1ccccc1)C(=O)c1nccs1
[5]
  IC50: 0.04 µM
[7]
  IC50: 0.0006 µM

## CCCCCCCC/C=C\CCCCCCCC(=O)c1nnco1
[1]
  Ki: 0.09 µM

## N=C(N)NCCC[C@H](NC(=O)CN1CCN[C@@H](CCCNC(=N)N)C1=O)C(=O)c1nccs1
[5]
  IC50: 150 µM
[7]
  IC50: 0.011 µM

## CC(C)(C)CC(=O)N[C@H](Cc1ccccc1)C(=O)N1CCC[C@H]1C(=O)N[C@@H](CCCNC(=N)N)C(=O)c1nc2ccccc2o1.O=C(O)C(F)(F)F
[4]
  IC50: 0.0023 µM
[7]
  IC50: 0.11 µM

## N=C(N)N1CCC[C@@H](C[C@H](NC(=O)[C@@H]2CC[C@H]3CN(C(=O)CCc4ccccc4)CC(=O)N32)C(=O)c2nc3ccccc3s2)C1
[4]
  IC50: 0.59 µM
[5]
  IC50: < 0.001 µM

## N=C(N)NCCC[C@H](NC(=O)Cn1c(Cc2ccccc2)c(Cl)nc(NCCc2ccccc2)c1=O)C(=O)c1nccs1
[4]
  IC50: 0.47 µM

## CCCCCCCC/C=C\CCCCCCCC(=O)c1nc2ccccc2s1
[1]
  Ki: > 100 µM

## N=C(N)NCCC[C@H](NC(=O)CN1CCN(C(=O)c2ccccc2)CC1=O)C(=O)c1nccs1
[5]
  IC50: 7 µM
[7]
  IC50: 0.32 µM

## N=C(N)NCCC[C@@H](NS(=O)(=O)Cc1ccccc1)C(=O)NCC(=O)N[C@@H](Cc1c[nH]c2ccccc12)C(=O)c1nccs1
[4]
  IC50: > 180 µM
[7]
  IC50: 0.039 µM

## CCCCCCCC(=O)c1nc2ncccc2o1
[1]
  Ki: 0.00069 µM

## COc1ccnc(-c2cnc(C(=O)CCCCCCc3ccccc3)o2)c1
[1]
  Ki: 0.0008 µM

## O=C(CCCCCCC(=O)c1ncco1)Nc1cc2ccccc2[nH]1
[3]
  IC50: 0.09 µM
